The text below walks through data of patent US9388147B2 (Receptos, Inc., priority 2009, dated 2016).

The nature of series [1]: Evaluation of therapeutic index in rats: 5 or 14 day toxicology study, lung to body weight ratio. The series is classed as in vivo, Sprague-Dawley rat. Particulars: for Dose Resulting in 10% increase in lung weight: rats, oral, 5 or 14 consecutive days, interpolated from dose versus lung to body weight; for TI 14 days: therapeutic index: dose producing 10% lung weight increase / dose producing 50% T-cell depletion, 14 day toxicology study in rats. The method, then:
All studies were conducted in non-fasted male and female Sprague-Dawely rats (Simonsen Laboratories). Rats were housed in an AAALAC accredited facility and the research was approved by the facilities Institutional Animal Care and Use Committee (IACUC). The animals were acclimated to the laboratory for at least 5 days prior to initiation of experiments.
(§1) The compounds listed in Table 6 were formulated as suspensions in a vehicle consisting of 0.5% carboxymethyl cellulose (Acros Organics) in purified water (pH adjusted to ˜2.2 with hydrochloric acid). The same formulation was used in the rat lymphopenia and toxicology studies described below. The concentration of each compound in suspension was verified to be within ±10% of the target concentration by HPLC-UV.
In the toxicology studies, three male and three female rats per group were assigned to dosing groups using body weight based randomization. A control group in each study received vehicle. All animals were dosed orally by gavage on 5 or 14-consecutive days at a dose volume of 5 mL/kg/day. The animals were observed daily for any manifestations of adverse effect. Twenty-four hours after the final study dose, the rats were anesthetized with isoflurane and a terminal blood sample was taken by intra-cardiac puncture for hematology and clinical chemistry evaluation (IDEXX Laboratories, Sacramento, Calif.). The lungs with trachea were collected, weighed, and then prepared for histology by perfusion with 10% neutral buffered formalin via the trachea. The internally fixed lungs were then preserved in 10% neutral buffered formalin and submitted for histological examination (IDEXX).
The dose of each compound resulting in a 10% increase in the lung to terminal body weight ratio was estimated for each compound by linear interpolation. The therapeutic index was estimated as the ratio of the dose producing 10% lung weight increase to the dose producing 50% T-Cell depletion.
(§2) The dose producing a 10% increase in lung to body weight ratio was interpolated from a plot of dose versus lung to body weight. The lymphopenia response was measured 24 hours following the final dose of a 3-5 day multiple dose regimen.

The subject of the next series is peripheral T-cell counts. Briefly: Lymphopenia in rats, 3-5 day multiple dose regimen. The series is classed as in vivo, rat. Particulars: female rats, oral, 24 h after final dose of a 3-5 day multiple dose regimen. As to the method:
In rats: Female rats (Simonsen Laboratories, Gilroy Calif.) were housed in an ALAAC accredited facility and the research was approved by the facilities Institutional Animal Care and Use Committee (IACUC). The animals were acclimated to the laboratory for at least 5 days prior to initiation of experiments. Rats (n=3/compound/time-point) were dosed by oral gavage with 1 mg/kg compound formulated in a vehicle consisting of 5% DMS0/5% Tween 20 and 90% 0.1N HCL. Control rats were dosed PO with the vehicle. Whole blood was collected from isoflurane anesthetized rats via the retro-orbital sinus and terminal samples were collected by cardiac puncture into EDTA. Whole blood was incubated with mouse anti-rat CD32 (BD #550271), PE-mouse anti-rat CD45R/B220 (BD #554881), PECy5-mouse anti-rat CD4 (BD #554839), and APC-mouse anti-rat CD8a (eBioscience #17-0084) for 30 minutes on ice. Red blood cells were lysed using BD Pharm Lyse Lysing buffer (#555899) and white blood cells were analyzed with a BD FACSArray. Lymphopenia was expressed as the % of white blood cells that were CD4 or CD8 positive T cells. The overall lymphopenia response over 24 h was estimated by calculating the area under the effect curve (AUEC) using the linear trapezoidal rule.
as §1
Prior to the conduct of toxicology studies, the effect of three to five daily doses of each compound on peripheral T-cell counts of female rats was determined (see lymphopenia measurements in rats above). In these lymphopenia studies, blood samples were collected onto EDTA at intervals after the final study dose. The collection times were not identical for each study, however, all studies included a sample collected 24 hours after the final dose. The lymphopenia data was used as a biomarker to select equally pharmacologically active doses for the subsequent toxicology study. […] The high dose in the toxicology study represented a ≧20-fold increment over the low dose.
as §2

The next series concerns the target S1P1/EDG1 (Homo sapiens, UniProt P21453). Kind of series: S1P1 CRE-bla CHOK1 reporter assay, inhibition of Forskolin induced cAMP. In kind it is cell-based. A digest of the protocol:
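Read-out is a FRET β-lactamase substrate (2 h, room temperature) after 4 h, 37 °C compound treatment under 2 μM Forskolin in stable S1P1-transfected CRE-bla CHO-K1 cells. Ten-point curves; non-linear regression gives EC50 for inhibition of Forskolin-stimulated cAMP.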
On the technique in general: Reporter assays use an easily measured gene product as a stand-in for the process of interest.

Setting [2] is: S1P1 CRE-bla CHOK1, with Forskolin, read-out: S1P1 agonist value (EC50).
[3] abbreviates: agonist activity range, S1P1 CRE-bla CHOK1, 2 μM Forskolin, read-out: S1P1 ACTIVITY

The structures appear in SMILES notation. Where a name gives a salt, the structure may show the parent alone. Read-outs that look alike come from different tables or passages of the source.

S1P1/EDG1, sequence (P21453 whole entry): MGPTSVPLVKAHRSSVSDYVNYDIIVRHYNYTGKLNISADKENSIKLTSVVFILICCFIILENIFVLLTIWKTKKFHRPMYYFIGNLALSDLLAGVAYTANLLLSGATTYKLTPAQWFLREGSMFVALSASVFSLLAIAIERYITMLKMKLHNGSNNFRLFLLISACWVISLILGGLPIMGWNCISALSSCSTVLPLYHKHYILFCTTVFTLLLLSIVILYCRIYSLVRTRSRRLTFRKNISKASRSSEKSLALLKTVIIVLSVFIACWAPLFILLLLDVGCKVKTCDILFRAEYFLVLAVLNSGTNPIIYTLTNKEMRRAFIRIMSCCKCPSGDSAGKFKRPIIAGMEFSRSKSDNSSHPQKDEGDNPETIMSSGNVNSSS

`CC(C)Oc1ccc(-c2nc(-c3cccc4c3CC[C@H]4N)no2)cc1C#N` [Compound 49, (R)-5-(3-(1-amino-2,3-dihydro-1H-inden-4-yl)-1,2,4-oxadiazol-5-yl)-2-isopropoxy-benzonitrile hydrochloride]: in series [1], the “Dose Resulting in 10% increase in lung weight” value (“Dose Resulting in 10% increase” below) turned out to be 0.2 mg/kg and the “TI 14 days” value stood at 2. For the same molecule, the “Dose Producing 50% lymphopenia” value in the series with peripheral T-cell counts is recorded as 0.10 mg/kg. Also, at S1P1/EDG1 (setting [2]), the EC50 stood at 0.17 nM. Moreover, the EC50 at S1P1/EDG1 (setting [3]) lay in the range of 0.05 to 0.5 nM.

For the molecule `CC(C)Oc1ccc(-c2nc(-c3cccc4c3CC[C@@H]4N)no2)cc1C#N` [Compound 50, (S)-5-(3-(1-amino-2,3-dihydro-1H-inden-4-yl)-1,2,4-oxadiazol-5-yl)-2-isopropoxy-benzonitrile], in series [1], the “Dose Resulting in 10% increase” value came out at 2.0 mg/kg and the “TI 14 days” value was 20. The “Dose Producing 50% lymphopenia” value with peripheral T-cell counts turned out to be 0.10 mg/kg. In addition, on S1P1/EDG1 (setting [2]), the EC50 was 0.19 nM. On S1P1/EDG1 (setting [3]), the EC50 was 0.05 to 0.5 nM.

As for `CC(C)Oc1ccc(-c2nc(-c3cccc4c3CC[C@H]4NCCO)no2)cc1C#N` [Compound 85, (R)-5-(3-(1-(2-hydroxyethylamino)-2,3-dihydro-1H-inden-4-yl)-1,2,4-oxadiazol-5-yl)-2-isopropoxybenzonitrile], in series [1], the “Dose Resulting in 10% increase” value stood at 2.8 mg/kg and the “TI 14 days” value was 14. Also, the “Dose Producing 50% lymphopenia” value in the series on peripheral T-cell counts is reported as 0.15 mg/kg.

On to `CC(C)Oc1ccc(-c2nc(-c3cccc4c3CC[C@H]4NCC(=O)N(C)C)no2)cc1C#N` [Compound 90, (R)-2-(4-(5-(3-cyano-4-isopropoxyphenyl)-1,2,4-oxadiazol-3-yl)-2,3-dihydro-1H-inden-1-ylamino)-N,N-dimethylacetamide hydrochloride], for which, in series [1], the “Dose Resulting in 10% increase” value came to 5.5 mg/kg and the “TI 14 days” value is on record as 14. For the same molecule, the “Dose Producing 50% lymphopenia” value in the series with peripheral T-cell counts is given as 0.40 mg/kg. Further, the EC50 on S1P1/EDG1 (setting [2]) was found to be 0.13 nM. Also, the EC50 on S1P1/EDG1 (setting [3]) lay within 0.05 to 0.5 nM.

Consider `CC(C)Oc1ccc(-c2nc(-c3cccc4c3CC[C@@H]4NCC(=O)N(C)C)no2)cc1C#N` [Compound 91, (S)-2-(4-(5-(3-cyano-4-isopropoxyphenyl)-1,2,4-oxadiazol-3-yl)-2,3-dihydro-1H-inden-1-ylamino)-N,N-dimethylacetamide], for which the “Dose Resulting in 10% increase” value in series [1] is on record as 0.3 mg/kg. Besides, in series [1], the “TI 14 days” value was 1. The “Dose Producing 50% lymphopenia” value in the series with peripheral T-cell counts was 0.30 mg/kg. The results for the EC50 at S1P1/EDG1 (setting [2]) and at S1P1/EDG1 (setting [3]) were 0.09 nM and 0.05 to 0.5 nM, respectively.
